For one test, the system named is CHO DG44 cells. Nature of the test: Alternative transgene TNFR-Fc, batch titer by ELISA (Example 4). Format: cell-based, Chinese Hamster. The settings on record: 0.5 mmol/l final VPA, day 5 after transfection. The procedure:
10 million suspension-adapted HEK293E cells were resuspended in 0.5 ml of Ex-Cell 293 HEK 293 serum-free medium with 4 mmol/l L-glutamine (Cat. No. 14571C-[…]; Lot No. 6A0093; SAFC Biosciences, Lenexa, Kans., USA, “Ex-Cell” medium; note: “Ex-Cell” medium-as used herein-refers to a medium comprising 4 mmol/l L-glutamine) in a 50-ml filter tube each (TPP AG, Trasadingen, Switzerland; Cat. No. 87050, Lot 20050174). In a separate set, 10 million suspension-adapted CHO DG44 cells were resuspended in 0.5 ml of ProCHO5 serum-free medium with 4 mmol/[…] hypoxanthine and 0.194 g/l thymidine (BioWhittaker (Lonza), Belgium; Cat. No. BE12-[…]; Lot No. 7MB0040; “ProCHO5” medium; note: “ProCHO5” medium-as used herein-refers to a medium comprising 4 mmol/[…] hypoxanthine and 0.194 g/l thymidine) in a 50-ml filter tube each (TPP AG, Trasadingen, Switzerland; Cat. No. 87050, Lot 20050174). […] In short, Goat Anti-Human IgG (Fc Fragment specific; Jackson ImmunoResearch Laboratories Inc., West Grove, Pa., USA; Code Number 109-006-098; Lot No. 72349) was used for coating the ELISA-plates, and with AP-conjugated goat anti-human gamma chain IgG (Biosource) the synthesized TNFR-Fc was detected. […] Absorption was measured at 405 nm against 490 nm using a microplate reader (SPECTRAmaxTM340; Molecular Devices, Palo Alto, Calif., USA).
(In general: ELISA stands for enzyme-linked immunosorbent assay.)

Another test concerns HEK293E cells. Nature of the test: Influence of temperature on IgG batch titer and comparison with sodium butyrate (Example 2). The test is classed as cell-based, Human. As to conditions: day 5 after transfection. How it is done:
No. 14571C-[…]; Lot No. 6A0093; SAFC Biosciences, Lenexa, Kans., USA, “Ex-Cell” medium; note: “Ex-Cell” medium-as used herein-refers to a medium comprising 4 mmol/l L-glutamine) in a 50-ml filter tube each (TPP AG, Trasadingen, Switzerland; Cat. No. 87050, Lot 20050174). In a separate set, 10 million suspension-adapted CHO DG44 cells were resuspended in 0.5 ml of ProCHO5 serum-free medium with 4 mmol/[…] hypoxanthine and 0.194 g/l thymidine (BioWhittaker (Lonza), Belgium; Cat. No. BE12-[…]; Lot No. 7 MB0040; “ProCHO5” medium; note: “ProCHO5” medium-as used herein-refers to a medium comprising 4 mmol/[…] hypoxanthine and 0.194 g/l thymidine) in a 50-ml filter tube each (TPP AG, Trasadingen, Switzerland; Cat. No. 87050, Lot 20050174). Then 12.5 μg plasmid DNA at a concentration of 1 μg/μl was added in each tube with the following composition 50% (6.25 μg) p-LC (SEQ ID NO: 1) 50% (6.25 μg) p-HC (SEQ ID NO: 3). Plasmid p-LC comprises the genetic information for the production of the light chain of an IgG antibody, plasmid p-HC comprises the genetic information for the production of the heavy chain of an IgG antibody. The particular vector constructs used in the present invention can also be obtained from the inventors. The inventors can be contacted via e-mail at […]. Moreover, commercial services do exist that produce any desired nucleotide sequence even comprising several kilobase pairs including complete expression cassettes in plasmid backgrounds (e.g., Invitrogen, Carlsbad, USA; Geneart, Germany.) Thus, providing the genetic sequence information of the plasmids should enable one of ordinary skill in the art to order the plasmids of the present invention at one of the commercial services listed. After shortly mixing the DNA with the cells by gentle shaking, 25 μg of 25-kd linear polyethyleneimine (“PEI”; Polysciences, Eppelheim, Germany; [2]) were added at a concentration of 1 μg/μl to each of the tubes. After shortly mixing by gentle shaking, the filter tubes containing the cells together with the DNA and PEI were transferred into an orbital shaker (Kühner Shaker Cabinet ISF-4-W, “Kühner shaker”, Kühner AG, Birsfelden, Switzerland), and the cells were incubated for 4 hours at 37° C. in a 5% CO2 atmosphere under shaking at 180 rpm. After that time, 4.5 ml of Ex-Cell medium were added to each of the filter tubes containing HEK 293 cells and 4.5 ml of Pro-CHO5 were added to each of the filter tubes containing CHO DG44 cells. […] No. […] Sigma-Aldrich Chemie GmbH, Industriestrasse 25, CH-9471 Buchs SG) was added to the corresponding tubes at the corresponding final concentrations. The cells then were returned into the Kühner shaker. Half the tubes were incubated at 37° C. in a 5% CO2 atmosphere under shaking at 180 rpm, the other half was incubated at 31° C. […] The ELISA was performed as published in prior art. In short, Goat anti-human kappa light chain IgG (Biosource) was used for coating the ELISA-plates, and with AP-conjugated goat anti-human gamma chain IgG (Biosource) the synthesized IgG1 was detected. NPP was used as a substrate for the alkaline phosphatase. Absorption was measured at 405 nm against 490 nm using a microplate reader (SPECTRAmaxTM340; Molecular Devices, Palo Alto, Calif., USA).

Setting [1] is: 3.8 mmol/l VPA, relative to control = 1.

As for `CCCC(CCC)C(=O)O` [VPA, valproic acid], in the test on CHO DG44 cells, the Batch titer amounted to 27.7 ± 3.7 mg/L and the “Fold increase over control” value is 1.8 fold. Further, in the test on HEK293E cells (setting [1]), the “Batch titer increase at 31° C.” value is given as 5.3 ± 0.4 and the “Batch titer increase at 37° C.” value was 5.3 ± 0.5. Moreover, in the test on HEK293E cells (31° C. and 37° C.), the “performance compared with sodium butyrate (batch titer increase)” value is “slightly better performance than sodium butyrate”.

Source of the values: US20090023186A1, “USE OF VALPROIC ACID FOR ENHANCING PRODUCTION OF RECOMBINANT PROTEINS IN MAMMALIAN CELLS” (EXCELLGENE SA, priority 2007, published 2009).
